Measurements taken from patent US7267821B2, “Binding member which binds to both Lewisy and Lewisb haptens, and its use for treating cancer” (Scancell Limited, priority 2001, dated 2007).

Legend:
Format in all cases: cell-based
C170 cells = assay: 5FU and SC101/29, crystal violet cell number after 5 days; conditions: 5 Fluorouracil 0.25 μg/ml alone
Procedure: 3×10^3 C170 cells were plated into microtitre plates and left overnight to adhere. 5FU was added to a final concentrations of 0.25 and 0.5 μg/ml .SC101/29 antibody was also added at concentration of 1-50 μg/ml. […] However, in combination with a non-toxic dose of 5 Fluorouracil (0.25 μg/ml) there was a 70% reduction in cell growth.

Colorectal C170 cells = assay: Cyto Death ELISA for fragmented DNA, with or without cisplatin; conditions: cisplatin at 3 μg/ml alone
Procedure: The cultures were then washed once and incubated in goat anti-mouse antibody at 100 μg/ml for 30 minutes at room temperature. The cultures were then re-washed and left over night in culture medium with or without cisplatin. The following day the cultures were washed, lysed and tested for the presence of fragmented DNA by a Cyto Death ELISA (Roche). The results were recorded by optical Density measurements at 405 nm.

[1] = tested on: C170 colorectal tumour cells; assay: Cisplatin then SC101/29, crystal violet viable cells after 4 days; design: dose or concentration left out as unconfirmed; conditions: cisplatin alone
Procedure: […] The cells were left for 4 days when the number of viable cells was determined by crystal violet staining and optical density reading at 550 nm. […] The combination of drug and antibody are synergistic, inducing a 50% reduction in cell growth.

SMILES	toxicity of dose to C170 cells (C170 cells)	apoptosis (fragmented DNA) (Colorectal C170 cells)	inhibition of C170 cell growth [1]
O=c1[nH]cc(F)c(=O)[nH]1 [5 Fluorouracil]	non-toxic	–	–
N.N.[Cl][Pt][Cl] [cisplatin]	–	induces apoptosis	10%
